Data: BindingDB's records for doi:10.1021/np50113a004 (1994)

Tests used:
[1] = Inhibition of LFA1 expressed in human JY cells interaction with ICAM1-IG expressed in human HeLa cell monolayer after 45 mins by cell adhesion assay
[2] = molecular target: T1, Integrin alpha-L (Homo sapiens, UniProt P20701); experiment: Inhibition of LFA1 expressed in human JY cells interaction with ICAM1-IG expressed in human HeLa cell monolayer after 45 mins by cell adhesion assay
T1 sequence (P20701 whole entry): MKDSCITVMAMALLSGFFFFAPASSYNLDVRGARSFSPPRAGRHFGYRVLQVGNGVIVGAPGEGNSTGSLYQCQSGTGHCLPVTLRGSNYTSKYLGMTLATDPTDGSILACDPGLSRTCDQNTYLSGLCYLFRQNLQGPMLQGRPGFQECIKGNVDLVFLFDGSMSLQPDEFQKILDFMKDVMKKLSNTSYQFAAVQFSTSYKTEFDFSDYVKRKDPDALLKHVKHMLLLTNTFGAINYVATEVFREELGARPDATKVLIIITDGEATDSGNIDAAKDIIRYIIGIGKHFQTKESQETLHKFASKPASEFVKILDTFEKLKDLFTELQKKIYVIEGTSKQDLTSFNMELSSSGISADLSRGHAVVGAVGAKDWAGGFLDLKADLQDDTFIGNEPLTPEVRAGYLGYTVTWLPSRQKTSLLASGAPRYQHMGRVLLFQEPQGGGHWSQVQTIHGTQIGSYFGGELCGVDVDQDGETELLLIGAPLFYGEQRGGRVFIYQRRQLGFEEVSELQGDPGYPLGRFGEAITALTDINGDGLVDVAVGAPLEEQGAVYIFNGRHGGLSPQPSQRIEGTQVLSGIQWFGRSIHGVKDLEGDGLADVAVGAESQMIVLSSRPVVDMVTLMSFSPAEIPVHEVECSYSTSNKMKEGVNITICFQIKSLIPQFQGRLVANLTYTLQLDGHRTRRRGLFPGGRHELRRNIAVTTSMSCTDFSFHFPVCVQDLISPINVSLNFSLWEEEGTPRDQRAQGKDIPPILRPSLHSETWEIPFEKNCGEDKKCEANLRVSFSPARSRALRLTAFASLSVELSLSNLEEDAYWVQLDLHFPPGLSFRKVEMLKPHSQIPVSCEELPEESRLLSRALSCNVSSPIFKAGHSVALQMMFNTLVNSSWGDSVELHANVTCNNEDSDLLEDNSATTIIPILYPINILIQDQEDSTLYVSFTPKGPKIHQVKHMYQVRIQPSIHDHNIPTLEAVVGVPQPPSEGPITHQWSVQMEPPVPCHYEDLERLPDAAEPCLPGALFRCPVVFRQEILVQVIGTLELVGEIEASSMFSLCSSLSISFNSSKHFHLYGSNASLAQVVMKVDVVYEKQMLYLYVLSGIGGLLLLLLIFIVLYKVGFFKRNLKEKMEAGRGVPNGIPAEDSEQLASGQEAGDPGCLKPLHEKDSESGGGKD

Work on `CC(C)(O)/C=C/C(=O)[C@@](C)(O)[C@H]1[C@H](O)C[C@@]2(C)[C@@H]3CC=C4[C@@H](C[C@H](O)C(=O)C4(C)C)[C@]3(C)C(=O)C[C@]12C` yielded an IC50 [1] of 1360 nM.
For `CC(C)(O)CCC(=O)[C@@](C)(O)C1[C@H](O)C[C@@]2(C)[C@@H]3CC=C4C(CC(=O)C(=O)C4(C)C)[C@]3(C)C(=O)C[C@]12C` (stereo partly drawn) [Cucurbitacin L], the IC50 [2] was over 50000 nM.
Compound `CC(C)(O)C=CC(=O)[C@](C)(O)[C@H]1[C@H](O)C[C@@]2(C)[C@@H]3CC=C4[C@@H](CC(=O)C(=O)C4(C)C)[C@]3(C)C(=O)C[C@]12C` [NSC-521777] has an IC50 [2] of 950 nM.
